From paper PMC11219871, “Epigenetic-based differentiation therapy for Acute Myeloid Leukemia” (Nature Communications, 2024)
Where “and” joins values, the source holds several entries; their conditions need not be identical. Equal values may be shown once. Read-outs that look alike come from different tables or passages of the source.

Columns and labels:
Type in all cases: in vivo, mouse
[1] = tested on: MV4-11 xenograft in BALB/cA Rag2-/-γc-/- mice; assay: Subcutaneous xenograft model (tumor volume, CD11b q-PCR, H3Ac, body weight); conditions: for Tumor volume: MV4-11 subcutaneous xenograft, in mm³; for Tumor volume / body weight of mice: individual mice; for body weight of mice: subcutaneous MV4-11 AML mouse model
Description: (§1) The subcutaneous xenograft models of ML-2 and MV4-11 derived cells, 5 × 10^6 and 10 × 10^6 cells, respectively, diluted in 100 µL of saline solution were subcutaneously inoculated in the back left flank of female BALB/cA Rag2^−/−γc^−/− mice. When tumors became palpable, the mice were randomized into three groups: vehicle, CM-444 and CM-1758, (eight animals/group). Treatment with 10 mg/kg of CM-444 or CM-1758 i.p. was started 4 days after injection when all mice presented subcutaneous tumors and was administered for 5 consecutive days followed by 2 resting days over 3 weeks for the ML-2 model or daily for 2 weeks for the MV4-11 model. The control group received only 80% saline solution, 10% DMSO […] 10% Tween 20 (diluents of CM-444 and CM-1758). Tumor size was analyzed every 2–3 days using the following method: […], where D and d corresponded to the longest and shortest diameter, respectively. The maximal tumor size/burden permitted by the Animal Care and Ethics Committee of the University of Navarra is 2000 mm^3. This maximal tumor size/burden was not exceeded in any case. ML-2 and MV4-11 tumors were explanted for differentiation and global histone acetylation analysis. Histones were extracted, and a western blot of H3Ac was performed as described above. For the differentiation study, RNA was extracted, and q-PCR of CD11b was performed as described above (CD11b sequence primer can be found in Supplementary Table 10).

[2] = tested on: ML-2 xenograft in BALB/cA Rag2-/-γc-/- mice; assay: as above; conditions: for Tumor volume: ML-2 subcutaneous xenograft, individual mice (Fig 3B), in mm³; for body weight of mice: subcutaneous ML-2 AML mouse model, individual mice
Description: as §1

[3] = Pharmacokinetic study in plasma samples; conditions: 10 mg/kg i.p.
Description: Compounds CM-444 and CM-1758 were measured in plasma using an Acquity UPLC system (Waters, Manchester, UK) coupled to an Xevo-TQ MS triple-quadrupole mass spectrometer with ESI source.
Compound solutions were prepared by dissolving the solid in dimethyl sulfoxide (DMSO) and this solution was made up to a final volume by the addition of a mixture of Tween 20 and 0.9% NaCl (1/1/8, v-v:v, DMSO/Tween 20/saline). For the pharmacokinetic experiments, a drug dosage of 10 mg/kg was administered as a single intraperitoneal injection to RAG-2 mice. Blood was collected at predetermined post-injection times (15 min, and 1, 2, 4, 8 and 24 h) into EDTA-containing tubes, and plasma was obtained via centrifugation (4 °C, 657 g, 5 min) and stored at −80 °C until analysis.
Chromatographic separation was performed by gradient elution at 0.6 mL/min using an Acquity UPLC BEH C18 column (50 × 2.1 mm, 1.7 µm; Waters). The mobile phase consisted of A: water with 0.1% formic acid, B: methanol with 0.1% formic acid. The autosampler temperature was set at 10 °C and the column temperature at 40 °C. For detection and quantification, the ESI operated in the positive mode was set up for multiple reaction monitoring. The collision gas used was ultra-pure argon at a flow rate of 0.15 mL/min.
Quantification was achieved by external calibration using matrix-matched standards. Concentrations were calculated using a weighted least-squares linear regression (W = 1/x). Calibration standards were prepared by adding the appropriate volume of diluted compound solution (made in a mixture of methanol and water, 50:50, v-v) to aliquots of 20 µL of blank plasma. The calibration standard and sample preparation were as follows: 3% formic acid in methanol was added to precipitate the proteins. The mixture was then vortex-agitated for 1 min and centrifuged at 16,522 g for 10 min at 4 °C. A 5-µL aliquot of the supernatant solution was injected into the LC-MS/MS system for analysis. Frozen plasma samples were thawed at room temperature, vortex mixed thoroughly and subjected to the above-described extraction procedure.
The pharmacokinetic parameters were obtained by fitting the blood concentration-time data to a non-compartmental model with WinNonlin software (Pharsight, Mountain View, CA).

Compound: COc1cc2nc(-c3cc(C)oc3C)cc(NCC3CCN(c4ncc(C(=O)NO)cn4)CC3)c2cc1OC [CM-1758, 2-[4-[[[2-(2,5-dimethyl-3-furyl)-6,7-dimethoxy-4-quinolyl]amino]methyl] -1-piperidyl]pyrimidine-5-carbohydroxamic acid]
- CD11b expression in explanted tumors ([1]; MV4-11 s.c., 10 mg/kg i.p.): significant increase in CD11b expression
- H3Ac levels in tumors ([1]; MV4-11 s.c., 10 mg/kg i.p.): increase in H3Ac levels
- tumor growth ([1]; MV4-11 s.c., 10 mg/kg i.p. daily, 2 weeks): inhibited tumor growth significantly
- Tumor volume ([1]; day 0): 0
- Tumor volume ([1]; day 7): 3.017
- Tumor volume ([1]; day 9): 146.917 and 71.6651 and 143.551 and 106.303 and 28.6195 and 85.1833 and 49.7152 and 104.914 and 63.9744 and 234.732
- Tumor volume ([1]; day 12): 419.824 and 122.408 and 229.873 and 238.093 and 102.721 and 299.024 and 103.513 and 178.679 and 140.065 and 433.026
- Tumor volume ([1]; day 14): 415.95 and 158.115 and 375.793 and 401.985 and 154.443 and 348.449 and 102.044 and 262.858 and 231.325 and 547.206
- Relative H3Ac/H3 total levels ([1]; after in vivo treatment, subcutaneous MV4-11 mouse model, western blot, individual tumors): 1.267 and 1.234 and 1.332 and 1.244 and 1.416 and 1.49
- body weight of mice ([1]; day 1, in g (unit assumed)): 23.6 and 18.5 and 22.2 and 22.3 and 23.2 and 21.8 and 24.2 and 20.2 and 19.5 and 21.3
- body weight of mice ([1]; day 5): 21.3 and 16.3 and 21.5 (2×) and 21.2 and 22.1 and 23 and 20 (2×) and 20.2
- body weight of mice ([1]; day 7): 20.5 and 16.4 and 21.3 and 21.6 and 20.8 and 23.9 and 19.5 (2×) and 19.3 and 19.8
- body weight of mice ([1]; day 9, in g (unit assumed)): 21 and 17.1 and 21.6 and 21.1 and 21.7 and 20.2 and 23.4 and 19.3 and 19.8 and 20.4
- body weight of mice ([1]; day 12, in g (unit assumed)): 21.3 and 18 and 22.5 and 21.9 and 22.2 and 21.8 and 23.6 and 19.9 and 20.4 and 21.5
- body weight of mice ([1]; day 14): 21.4 and 17.3 and 21.1 and 21.6 (2×) and 21.8 and 23.6 and 20 and 20.5 and 21
- body weight of mice ([1]; day 16): 22.2 (2×) and 18.1 and 21.8 and 21.5 and 22.3 and 24.4 and 20.3 and 20.9 and 21.7
- CD11b expression, log10 (2-ΔΔCt) ([1]; tumors of the subcutaneous MV4-11 model, q-PCR, individual tumors): 0.854 and 1.2584 and 2.36 and 1.145 and 1.034
- CD11b expression in explanted tumors ([2]; ML-2 s.c., 10 mg/kg i.p.): significant increase in CD11b expression
- H3Ac levels in tumors ([2]; ML-2 s.c., 10 mg/kg i.p.): increase in H3Ac levels
- tumor growth ([2]; ML-2 s.c., 10 mg/kg i.p., 5 days on/2 off, 3 weeks): inhibited tumor growth significantly
- Tumor volume ([2]; day 0): 0
- Tumor volume ([2]; day 8): 47.3386 and 22.9378 and 56.1402 and 38.666 and 38.4941 and 0 and 12.669 and 19.4742
- Tumor volume ([2]; day 11): 71.6377 and 35.2331 and 55.0976 and 24.3685 and 43.9734 and 8.639 and 15.4625 and 6.7915
- Tumor volume ([2]; day 13): 158.593 and 184.271 and 192.133 and 111.517 and 131.043 and 16.1706 and 35.0775 and 32.6327
- Tumor volume ([2]; day 15): 338.357 and 436.616 and 344.697 and 149.062 and 276.144 and 73.6819 and 103.063 and 52.9756
- Tumor volume ([2]; day 18): 450.141 and 971.066 and 667.169 and 309.135 and 557.655 and 200.834 and 266.198 and 84.0917
- Tumor volume ([2]; day 20): 750.162 and 778.307 and 425.752 and 619.516 and 424.823 and 364.169 and 387.08 and 367.037
- Relative H3Ac/H3 total levels ([2]; after in vivo treatment, subcutaneous ML-2 mouse model, western blot, individual tumors): 1.2836 and 1.288 and 1.719 and 8.364 and 1.323 and 1.1332
- body weight of mice ([2]; day 4, in g (unit assumed)): 23.8 and 22.2 and 25.1 and 23.3 and 24.6 and 21 and 23.7 and 24.3
- body weight of mice ([2]; day 6, in g (unit assumed)): 23 and 20.6 and 24.5 and 22.4 and 23.6 and 21.2 and 22.8 and 24.2
- body weight of mice ([2]; day 8): 22.9 (2×) and 20.3 and 23.8 and 22.4 and 21.2 and 22 and 23.5
- body weight of mice ([2]; day 11, in g (unit assumed)): 23 and 22.4 and 24.2 and 23.7 and 23.9 and 21.1 and 23.2 and 25.2
- body weight of mice ([2]; day 13): 23 (2×) and 21.6 and 24.6 and 24 and 23.4 and 22 and 25.4
- body weight of mice ([2]; day 15): 22.8 and 22 and 24.5 and 23.6 (2×) and 20.9 and 22.4 and 24.7
- body weight of mice ([2]; day 18, in g (unit assumed)): 22.9 and 21.9 and 23.9 and 24 and 22.8 and 20.8 and 21.6 and 24.1
- body weight of mice ([2]; day 20): 22.1 and 20.8 (2×) and 23.3 (2×) and 19.4 and 19.9 and 23.7
- CD11b expression from tumors measured by q-PCR ([2]; tumors of the subcutaneous ML-2 model, individual tumors (Fig 3C)): 1.158 log10 (2-ΔΔCt) and 2.588 log10 (2-ΔΔCt) and 4.58 log10 (2-ΔΔCt) and 3.25 log10 (2-ΔΔCt) and 2.2558 log10 (2-ΔΔCt)
- plasmatic concentration, Mean ([3]; 24 h): BLOQ
- Cl/F ([3]; mice, NCA, mean): 0.26 L/h
- concentration at 0.25 h ([3]; RAG-2, mouse, plasma, intraperitoneal, 0.25 h, read-out: plasmatic concentration, Mean): 1700 nM
- concentration at 1 h ([3]; RAG-2, mouse, plasma, intraperitoneal, 1 h, read-out: plasmatic concentration, Mean): 352 nM
- concentration at 2 h ([3]; RAG-2, mouse, plasma, intraperitoneal, 2 h, read-out: plasmatic concentration, Mean): 77.5 nM
- concentration at 4 h ([3]; RAG-2, mouse, plasma, intraperitoneal, 4 h, read-out: plasmatic concentration, Mean): 17.1 nM
- concentration at 8 h ([3]; RAG-2, mouse, plasma, intraperitoneal, 8 h, read-out: plasmatic concentration, Mean): 4.3 nM
- AUC(0-t) ([3]; RAG-2, mouse, plasma, ip, mice, NCA, mean): 1.69 µM·h
- Vd/F ([3]; RAG-2, mouse, plasma, ip, mice, NCA, mean, read-out: Vz/F): 0.72 L
- half-life ([3]; RAG-2, mouse, plasma, ip, mice, NCA, mean, read-out: t½ (converted)): 1.95 h
- CL/F ([3]; RAG-2, mouse, plasma, ip, mice, NCA, read-out: Norm. Cl/F (converted)): 173 mL/min/kg
- Vd/F ([3]; RAG-2, mouse, plasma, ip, mice, NCA, read-out: Norm. Vz/F): 28.6 L/kg
- clearance ([3]; mice): 0.26 lh^−1
